Measurements taken from publication PMC8877008, “Synthesis and Structure–Activity Relationship Studies of Benzimidazole-4,7-dione-Based P2X3 Receptor Antagonists as Novel Anti-Nociceptive Agents” (Molecules, 2022).

Key:
hP2X3R = biological target: T1, hP2X3R (Homo sapiens, UniProt P56373); experiment: Calcium influx (Fluo-4) evoked by α,β-meATP in HEK293 cells stably expressing hP2X3R; format: cell-based; settings: antagonistic activity; HEK293 cells expressing hP2X3R; agonist at EC70
T1 construct: expressed in transfected cells
T1 sequence (P56373 1-397): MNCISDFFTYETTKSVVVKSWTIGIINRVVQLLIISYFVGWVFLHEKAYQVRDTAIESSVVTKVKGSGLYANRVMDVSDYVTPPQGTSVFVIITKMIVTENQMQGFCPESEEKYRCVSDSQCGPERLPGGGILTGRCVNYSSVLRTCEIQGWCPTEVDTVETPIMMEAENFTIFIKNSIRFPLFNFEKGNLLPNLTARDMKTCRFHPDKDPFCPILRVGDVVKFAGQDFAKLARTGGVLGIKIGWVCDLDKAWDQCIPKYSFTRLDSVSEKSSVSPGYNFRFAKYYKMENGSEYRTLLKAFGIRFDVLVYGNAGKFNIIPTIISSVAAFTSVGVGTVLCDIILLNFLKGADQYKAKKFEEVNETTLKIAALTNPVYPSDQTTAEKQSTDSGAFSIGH
Description: For the evaluation of P2XR activities, a cell-based assay system was employed to measure the level of fluorescence emission, based on Fluo-4 dye, during Ca^2+ influx evoked by αβmeATP in HEK293 cells stably expressing hP2X2/3R and hP2X3R. The library containing 8364 representative compounds for the screening of antagonistic activity was provided by the Korea Chemical Bank. The antagonistic activities were evaluated in the presence of P2X3R agonist of the concentration for EC70 value (200–250 nM for hP2X3R and 1–4 μM for hP2X2/3R highly expressed cell lines), and AF353 was used as the positive control antagonist for comparison. For the first round of screening, a single concentration (25 μM) of each library compound was tested to identify initial hit compounds, which were subsequently validated using both concentrations of 25 and 10 μM. Using a cut-off threshold of higher than 50% antagonistic activity and after confirming dose-dependency, 12 main hit compounds were selected.
(§1) 3.4. Cell-Based Assay: Measurement of Calcium Influx by Fluorescence-Based Fluo-4 Dye Uptake in HEK293 Cells Expressing hP2X2/3 and hP2X3 Receptors
Human P2X3-expressing HEK293 cells were grown in DMEM supplemented with 10% fetal bovine serum and 1% antibiotic–antimycotic as a monolayer culture at 37 °C in a humidified atmosphere of 5% CO2. The 96-well black plates used in the experiments were prepared by coating them with 1× poly-D-lysine (A3890401, Thermo-Fisher Scientific Korea, Seoul, South Korea). An aliquot of 40 μL 1× poly-D-lysine was used to treat each of the wells in a flat orientation. After leaving the plates for at least 4 h to absorb the poly-D-lysine, the plates were allowed to dry for at least 6 h. The DMEM used in the culture of HEK293 cells was removed from the dish, followed by application of 3 mL 1× PBS for washing. Removal of 1× PBS was followed by application of 1 mL trypsin/EDTA, and the cells were collected by centrifugation at 1200 rpm for 2 min. The supernatant was removed, and 1 mL fresh DMEM added. The cells were resuspended in media and plates prepared with 4.8 × 10^4 cells/well in 56 μL/well. After 18 h of cell culture in the 96-well black plate, 56 μL of Fluo-4 dye (Fluo-4 Direct^TM Calcium Assay Kit, F10471, Invitrogen, Thermo-Fisher Scientific Korea, Seoul, South Korea) was added to each well, prepared according to the manufacturer’s protocol, and incubated for 50 min~1 h under culturing conditions. Then, 12.4 μL of the appropriate compound solution was added to each well, and the positive control was AF353 (A1612, Sigma Aldrich Korea, Seoul, South Korea) and the negative control was 5% DMSO. Plates were incubated at room temperature and sealed to avoid interference from light for 50 min~1 h. Flexstation 3 and its software provided by Molecular Devices was used for the measurement of fluorescence in real time of treatments using prepared α,β-meATP (M6517, Sigma Aldrich) solution to evoke calcium influx and increased cell membrane potential.
For the analysis of antagonistic activities, all data were calculated by Origin Pro 9.1 software provided by Originlab and the fitting of graphs was proceeded by the growth/sigmoidal and hill1 process within no weights for data selections. For the analysis of the behavioral assessments of pain models, all data are expressed as mean ± SEM. The dose–response data are presented as percentages of the maximum possible effect. Statistical significance was analyzed by independent t-test. The criterion for statistical significance was p < 0.05. The statistical analysis was performed using SPSS 25.0 software (IBM Corp., Armonk, NY, USA).

hP2X2/3R = biological target: T2, hP2X2/3R (Homo sapiens, UniProt P56373+Q9UBL9); experiment: Calcium influx (Fluo-4) evoked by α,β-meATP in HEK293 cells stably expressing hP2X2/3R; format: cell-based; settings: antagonistic activity; HEK293 cells expressing hP2X2/3R; agonist at EC70
T2 construct: expressed in transfected cells
T2 sequence (P56373 1-397): T1 sequence (P56373 1-397)
T2 sequence (Q9UBL9 1-471): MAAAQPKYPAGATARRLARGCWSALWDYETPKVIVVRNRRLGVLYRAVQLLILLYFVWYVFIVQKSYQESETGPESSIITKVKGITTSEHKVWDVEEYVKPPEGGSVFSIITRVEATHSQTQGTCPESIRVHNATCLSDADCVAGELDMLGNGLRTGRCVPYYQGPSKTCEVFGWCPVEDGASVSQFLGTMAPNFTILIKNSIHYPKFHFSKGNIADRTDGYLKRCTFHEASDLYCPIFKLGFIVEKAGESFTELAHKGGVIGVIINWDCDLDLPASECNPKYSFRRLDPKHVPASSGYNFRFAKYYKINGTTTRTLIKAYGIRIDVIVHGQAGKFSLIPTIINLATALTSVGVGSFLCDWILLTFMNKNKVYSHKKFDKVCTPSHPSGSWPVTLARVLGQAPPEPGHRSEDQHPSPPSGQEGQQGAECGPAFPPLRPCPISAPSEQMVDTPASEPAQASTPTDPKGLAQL
Description: For the evaluation of P2XR activities, a cell-based assay system was employed to measure the level of fluorescence emission, based on Fluo-4 dye, during Ca^2+ influx evoked by αβmeATP in HEK293 cells stably expressing hP2X2/3R and hP2X3R. The library containing 8364 representative compounds for the screening of antagonistic activity was provided by the Korea Chemical Bank. The antagonistic activities were evaluated in the presence of P2X3R agonist of the concentration for EC70 value (200–250 nM for hP2X3R and 1–4 μM for hP2X2/3R highly expressed cell lines), and AF353 was used as the positive control antagonist for comparison. […]
as §1
Human P2X3-expressing HEK293 cells were grown in DMEM supplemented with 10% fetal bovine serum and 1% antibiotic–antimycotic as a monolayer culture at 37 °C in a humidified atmosphere of 5% CO2. […] Flexstation 3 and its software provided by Molecular Devices was used for the measurement of fluorescence in real time of treatments using prepared α,β-meATP (M6517, Sigma Aldrich) solution to evoke calcium influx and increased cell membrane potential. […]

[1] = Metabolic stability in microsomal fraction, human; format: in vitro ADME; settings: human microsomal fraction, read-out: Metabolic Stability (Microsomal Fr.) % remaining after 30 min
Solubility in DMSO/water = format: physicochemical; settings: DMSO in water

Structure (SMILES): O=C1C(NC2CCN(C(=O)c3ccc(F)c(F)c3)CC2)=C(Cl)C(=O)c2[nH]c(C(F)(F)F)nc21 [14h, 6-Chloro-5-((1-(3,4-difluorobenzoyl)piperidin-4-yl)amino)-2-(trifluoromethyl)-1H-benzo[d]imidazole-4,7-dione]
- IC50 (hP2X3R): 0.375 ± 0.033 µM
- IC50 (hP2X2/3R): 9.1 µM
- remaining at 0.5 h [1]: > 99%
- Solubility (Solubility in DMSO/water): soluble in 30% DMSO in water
